Reference: ChEMBL document CHEMBL1137960, “Miraziridine A: natures blueprint towards protease class-spanning inhibitors” (Bioorg Med Chem Lett, 2004)
Non-standard residues stand in square brackets, D forms with d. Residues, ends and D or L forms follow the SMILES beside them. ξ: configuration not given here. *: point of attachment. Sta = CC(C)C[C@H](N)[C@@H](O)CC(=O)O; X1 = CC(=O)c1cn(*)c2ccccc12; Isovaleryl = CC(C)CC(=O)*; ξIva = CCC(C)(N)C(=O)O

Columns and labels:
[1] = target: Procathepsin L (Homo sapiens) (UniProt P07711); assay: Second order rate constant for cathepsin L
[2] = target: Cathepsin B (Homo sapiens) (UniProt P07858); assay: Second order rate constant for cathepsin B
Pepsin A = Pepsin A (Sus scrofa, UniProt P00791); assay: (§1) Inhibitory activity against aspartyl protease pepsin
[3] = target: Cathepsin B (Homo sapiens) (UniProt P07858); assay: Inhibitory activity against cysteine protease cathepsin B
[4] = target: Serine protease 1 (Homo sapiens) (UniProt P07477); assay: Inhibitory activity against serine protease trypsin
Pepsin A (Sus scrofa) = Pepsin A (Sus scrofa) (UniProt P00791); assay: as §1
[5] = target: Procathepsin L (Homo sapiens) (UniProt P07711); assay: Inhibitory activity against cysteine protease cathepsin L

Chain of Pepsin A (P00791 whole entry): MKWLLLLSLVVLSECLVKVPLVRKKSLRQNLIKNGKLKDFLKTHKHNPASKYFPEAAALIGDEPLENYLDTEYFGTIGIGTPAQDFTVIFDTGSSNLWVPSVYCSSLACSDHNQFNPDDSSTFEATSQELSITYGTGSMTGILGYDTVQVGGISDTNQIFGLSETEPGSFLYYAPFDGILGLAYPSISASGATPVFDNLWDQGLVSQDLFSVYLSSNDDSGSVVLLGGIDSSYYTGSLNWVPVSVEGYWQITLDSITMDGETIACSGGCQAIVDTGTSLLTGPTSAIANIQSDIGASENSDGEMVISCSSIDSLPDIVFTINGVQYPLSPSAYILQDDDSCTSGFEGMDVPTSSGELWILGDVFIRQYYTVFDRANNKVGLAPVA
Chain of Procathepsin L (Homo sapiens) (P07711 114-333 limits assumed): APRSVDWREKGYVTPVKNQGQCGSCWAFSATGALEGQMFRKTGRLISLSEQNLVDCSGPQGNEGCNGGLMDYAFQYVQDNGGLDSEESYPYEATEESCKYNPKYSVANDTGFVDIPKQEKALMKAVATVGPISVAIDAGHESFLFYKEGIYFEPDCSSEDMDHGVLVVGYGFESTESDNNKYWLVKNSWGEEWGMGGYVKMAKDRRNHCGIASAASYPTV
Chain of Serine protease 1 (Homo sapiens) (P07477 whole entry): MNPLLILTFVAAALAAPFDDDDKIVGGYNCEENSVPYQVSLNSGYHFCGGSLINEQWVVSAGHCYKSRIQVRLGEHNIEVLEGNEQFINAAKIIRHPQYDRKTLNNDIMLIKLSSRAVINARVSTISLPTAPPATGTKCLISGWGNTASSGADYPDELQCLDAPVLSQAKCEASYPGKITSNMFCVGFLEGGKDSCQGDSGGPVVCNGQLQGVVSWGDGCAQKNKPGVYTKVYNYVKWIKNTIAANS
Chain of Pepsin A (Sus scrofa) (P00791 60-385 limits assumed): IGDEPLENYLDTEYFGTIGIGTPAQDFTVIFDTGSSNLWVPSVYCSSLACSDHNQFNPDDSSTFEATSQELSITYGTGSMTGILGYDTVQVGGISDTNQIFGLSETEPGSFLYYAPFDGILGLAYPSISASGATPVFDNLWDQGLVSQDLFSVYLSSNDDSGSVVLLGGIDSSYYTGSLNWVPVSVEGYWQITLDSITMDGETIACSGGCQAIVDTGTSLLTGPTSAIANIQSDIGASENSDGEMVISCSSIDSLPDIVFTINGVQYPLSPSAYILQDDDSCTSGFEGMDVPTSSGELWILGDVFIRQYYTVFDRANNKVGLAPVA

CC(C)CCNC(=O)[C@H](CC(C)C)NC(=O)[C@@H]1N[C@H]1C(=O)O
k2/Ki [1]: 120000 M⁻¹ s⁻¹
k2/Ki [2]: 17000 M⁻¹ s⁻¹

CCC(C)(N)C(=O)N[C@H](C(=O)N[C@@H](CC(C)C)[C@@H](O)CC(=O)N[C@@H](C)C(=O)n1cc(C(C)=O)c2ccccc21)C(C)C (some centres undefined) (H-[ξIva]V[Sta]A-X1)
Ki (Pepsin A): 3 nM

CC(C)CC(=O)N[C@H](C(=O)N[C@H](C(=O)N[C@@H](CC(C)C)[C@@H](O)CC(=O)N[C@@H](C)C(=O)N[C@@H](CC(C)C)[C@@H](O)CC(=O)O)C(C)C)C(C)C (Isovaleryl-VV[Sta]A[Sta]-OH)
Ki (Pepsin A): 0.046 nM

CC[C@H](NC(=O)C[C@H](O)[C@H](CC(C)C)NC(=O)[C@H](CC(C)C)NC(=O)[C@@H]1N[C@H]1C(=O)O)C(=O)N[C@H](/C=C/C(=O)O)CCCN=C(N)N [MIRAZIRIDINE A]
Affinity [3]: 15000 M⁻¹ s⁻¹
Affinity [4]: 60 µM
Ki (Pepsin A): 14 nM
Affinity (Pepsin A (Sus scrofa)): 14 nM
Affinity [5]: 1e+06 M⁻¹ s⁻¹
